In publication PMC8584989 (International Journal of Molecular Sciences, 2021):

Legend:
[1] = test system: MDCKII-parent cells; assay: MTT proliferation / drug combination assay; assay type: cell-based, canine; conditions: Canis lupus familiaris, read-out: IC50 (IC50-shift analysis)
Description: (§1) These colorimetric assays were used in various studies presented in this paper (prior induction studies, MDR reversal experiments and comparative viability assays) and were performed as reported previously. […] In MTT experiments, cells were seeded on a 96-well culture plate at densities (in number of cells/well) of 1.3 × 10^4 for MDCKII-par, MDCKII-ABCB1 and MDCKII-ABCG2; 1.2 × 10^4 for A431-par, A431-ABCB1, A431-ABCG2 and A431-ABCC1; 1.2 × 10^4 for NCI-H1299; 1.0 × 10^4 for A459; 2.0 × 10^4 for Caco-2; 5.0 × 10^4 for LS174T; and 1.0 × 10^4 for primary NSCLC explants. On the other hand, for XTT cells were seeded with densities 2.0 × 10^4 for HL60-par, HL60-ABCB1, HL60-ABCG2 and HL60-ABCC1 cells/well on 96-well plates. […] Following 48 h incubation with drugs, Opti-MEM solutions of MTT or XTT (1 mg/mL) with phenazine methosulfate solution (7.50 μg/mL; only for XTT) was added and the cells were incubated for 1 h with the exception of HL60s that were incubated for 5 h.
(§2) Based on the computed CI values, the effects of drug combinations were classified as synergistic (CI < 0.9), additive (0.9 < CI < 1.1) or antagonistic (CI > 1.1).

[2] = test system: A431-par cells; assay: MTT proliferation / drug combination assay; assay type: cell-based; conditions: read-out: IC50 (IC50-shift analysis)
Description: as §1, §2

[3] = test system: HL60-par cells; assay: XTT proliferation / drug combination assay; assay type: cell-based; conditions: read-out: IC50 (IC50-shift analysis)
Description: as §1, §2

[4] = test system: MDCKII-ABCB1 cells; assay: MTT proliferation / drug combination assay; conditions: Canis lupus familiaris, read-out: IC50 (IC50-shift analysis)
[5] = test system: A431-ABCB1 cells; assay: MTT proliferation / drug combination assay; conditions: read-out: IC50 (IC50-shift analysis)
[6] = test system: HL60-ABCB1 cells; assay: XTT proliferation / drug combination assay; conditions: read-out: IC50 (IC50-shift analysis)
[7] = test system: A431-ABCG2 cells; assay: MTT proliferation / drug combination assay; conditions: read-out: IC50 (IC50-shift analysis)
[8] = test system: HL60-ABCG2 cells; assay: XTT proliferation / drug combination assay; conditions: read-out: IC50 (IC50-shift analysis)

`COc1cccc2c1C(=O)c1c(O)c3c(c(O)c1C2=O)C[C@@](O)(C(C)=O)C[C@@H]3O[C@H]1C[C@H](N)[C@H](O)[C@H](C)O1` [daunorubicin] showed an IC50 [1] of 947 nM, an IC50 [2] of 1990 nM and an IC50 [3] of 53.1 nM. The IC50 [4] was 11900 nM, the IC50 [5] was 21700 nM and the IC50 [6] was 2140 nM.
`O=C1c2c(O)ccc(O)c2C(=O)c2c(NCCNCCO)ccc(NCCNCCO)c21` [mitoxantrone] showed an IC50 [2] of 2100 nM, an IC50 [3] of 30.5 nM and an IC50 [7] of 56500 nM. The IC50 [8] was 669 nM.
